Three molecules from patent US20240002351A1, “QUINAZOLIN-4-ONE AND THIENO[2,3-D]PYRIMIDIN-4-ONE INHIBITORS OF ERBB4 (HER4) FOR USE IN THE TREATMENT OF CANCER” (UNIVERSITEIT ANTWERPEN, priority 2021, published 2024) can be followed below.

Structures are written as SMILES. Bounds are passed on as bounds.

Series [1] can be described thus: Plasma stability, mouse plasma. To be noted: 50 μM, 37° C., over 6 hours (FIG. 12). It is filed as in vitro ADME. The method, then:
(§1) A 5 μL aliquot of compound solution (10 mM in DMSO) was added to 995 μL of Non Swiss Albino Mouse Plasma (DivBioScience, Breda, Netherlands) or Pooled Normal Human plasma in sodium citrate to obtain a final concentration of 50 μM compound in plasma. The mixture was gently shaken for 6 hours at 37° C. Aliquots of 100 μL were taken at various time points (0, 0.5, 1, 2 and 6 hrs.) and diluted with 400 μL of cold acetonitrile (Sigma-Aldrich, stored at 4° C.). The suspension was centrifuged at 14000 rpm for 5 min. Thereafter, 50 μL of the supernatant was diluted with 950 μL of acetonitrile and analyzed with LC-MS/MS (Waters Acquity H-class UPLC system with ion trap mass spectrometer, Bruker Daltonics Esquire 3000 plus, and Agilent 1100 Series LC system). Samples were analyzed in triplicate and plotted against a standard curve (compound at 3.12-100 μM in plasma and diluted in acetonitrile as described above).

The target in series [2] is T1, ERBB4 (Homo sapiens, UniProt Q15303).
T1 construct: host or cells: U2OS
T1 sequence (Q15303 26-1308): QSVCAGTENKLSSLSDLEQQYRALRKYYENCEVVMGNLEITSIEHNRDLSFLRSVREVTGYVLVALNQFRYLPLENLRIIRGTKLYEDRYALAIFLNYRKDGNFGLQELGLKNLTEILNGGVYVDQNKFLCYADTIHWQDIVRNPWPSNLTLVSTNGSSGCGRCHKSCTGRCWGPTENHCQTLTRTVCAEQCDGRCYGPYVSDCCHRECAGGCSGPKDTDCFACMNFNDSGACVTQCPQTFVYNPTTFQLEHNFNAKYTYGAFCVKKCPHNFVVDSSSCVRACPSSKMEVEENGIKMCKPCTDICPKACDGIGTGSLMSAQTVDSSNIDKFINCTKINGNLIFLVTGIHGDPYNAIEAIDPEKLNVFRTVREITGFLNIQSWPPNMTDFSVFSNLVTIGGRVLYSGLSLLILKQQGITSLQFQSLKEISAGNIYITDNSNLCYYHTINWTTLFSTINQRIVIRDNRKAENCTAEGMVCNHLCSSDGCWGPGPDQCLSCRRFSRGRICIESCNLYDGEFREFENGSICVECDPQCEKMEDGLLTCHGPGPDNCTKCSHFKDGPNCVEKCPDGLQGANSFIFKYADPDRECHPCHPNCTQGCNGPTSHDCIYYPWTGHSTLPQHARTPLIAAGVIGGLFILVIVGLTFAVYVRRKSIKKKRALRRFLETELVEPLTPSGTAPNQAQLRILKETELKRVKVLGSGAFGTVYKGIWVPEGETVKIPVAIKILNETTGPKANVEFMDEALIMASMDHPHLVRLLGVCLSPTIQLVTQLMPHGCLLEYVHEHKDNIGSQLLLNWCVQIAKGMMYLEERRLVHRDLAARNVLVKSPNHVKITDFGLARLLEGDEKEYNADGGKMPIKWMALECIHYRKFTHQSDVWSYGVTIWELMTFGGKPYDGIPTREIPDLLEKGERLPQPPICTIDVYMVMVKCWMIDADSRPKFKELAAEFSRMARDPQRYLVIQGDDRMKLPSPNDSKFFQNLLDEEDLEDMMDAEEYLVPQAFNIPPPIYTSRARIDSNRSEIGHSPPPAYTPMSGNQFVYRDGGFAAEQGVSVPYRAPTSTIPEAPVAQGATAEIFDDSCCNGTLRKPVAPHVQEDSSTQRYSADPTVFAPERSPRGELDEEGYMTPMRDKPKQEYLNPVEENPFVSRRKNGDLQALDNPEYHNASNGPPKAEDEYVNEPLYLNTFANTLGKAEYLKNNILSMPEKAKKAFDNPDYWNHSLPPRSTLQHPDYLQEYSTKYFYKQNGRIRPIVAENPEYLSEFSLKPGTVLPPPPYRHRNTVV
Description: PathHunter ERBB4/ERBB4 dimerization assay, compounds on top of 0.1 μM NRG-1 (identification of modulators). It is filed as cell-based. To be noted: for EC50: on top of 0.1 μM NRG1; for Emax: on top of 0.1 μM NRG1, relative to NRG1 (set as 100%); for behaviour from the shape of the dose-response curves: on top of 0.1 μM neuregulin-1 (FIG. 1). How it is done:
(§2) Following 1-12 passages, U2OS ERBB4/ERBB4 dimerization cell line (Eurofins, 93-0961C3) were seeded at 10,000 cells/well in 100 μL cell plating reagent (Eurofins, 93-0563R0A) in white walled 96-well plates (PerkinElmer, 6005680) and incubated for 24h at 37° C. in humidified atmosphere of 5% CO2 in air. Cells were treated with 10 μL of compound (prepared at 11×, Enamine), 10 μM Heregulin-β1 (NRG-1) (DiscoverX, 92-1031 or Peprotech, 100-03) or PBS. […] Cells were subsequently incubated for 6 hours at 37° C., 5% CO2. Then 110 μL PathHunter Flash Detection Reagents (93-0247) were added to each well and cells were incubated at room temperature for 1 hour (covered from light). Afterwards luminescence signal was measured using the Luminoskan Ascent (Thermofisher). Dose response curves of the compounds were performed in 2-fold (0,0625 μM-32 μM).
Cells were treated with compound (prepared at 22×, 10 min pre-incubation) together with NRG-1 (0.1 μM final concentration, Peprotech, 100-03), or NRG-1 (0.1 μM final concentration) or PBS.
The EC50 and the Emax of the compounds on top of 0.1 μM NRG1 is depicted in Table 3 relative to NRG1 (set as 100%).

Series [3] in a line: Plasma stability, human plasma. It is filed as in vitro ADME. To be noted: 50 μM, 37° C., over 6 hours (FIG. 12). The method, then: as §1
Series [4] can be described thus: Solubility in PBS (absorbance). To be noted: aqueous buffer, kinetic from dmso stock, 37° C., 2 hours (FIG. 10), read-out: solubility: concentration at which easily soluble. Type of series: physicochemical. How it is done: A dilution series (0.16, 0.31, 0.62, 1.25, 2.5 and 5 mM) was made starting with a compound stock solution of 10 mM in DMSO. Aliquot of 4 μL was taken out of every dilution and added to 196 μL PBS in a 96-well plate. The plate was shaken for 10 seconds, incubated at 37° C. for 2 hours and thereafter absorbance was measured. Samples were analyzed in duplicate.

Series [5] deals with T1, ERBB4. Description: PathHunter ERBB4/ERBB4 dimerization assay, dose-response curves. It is filed as cell-based. To be noted: U2OS ERBB4/ERBB4 dimerization cell line, 6 hours, compound alone; for Emax: NRG-1 = 100. How it is done:
as §2
From these curves, the EC50 and the Emax of the compounds was calculated.

A short description of series [6]: Metabolic stability, mouse liver microsomes. It is filed as in vitro ADME. To be noted: for t1/2 mouse: mouse liver microsomes; for half-life at 10 µM: mouse, liver microsomes, pH 7.4, mouse liver microsomes, read-out: t1/2 mouse. The method, then: A mixture of 713 μL milliQ water (Millipore, MA, USA), 200 μL 0.5 M phosphate buffer (pH 7.4, BD Diagnostic Systems, MD, USA), 50 μL NADPH regenerating system solution A (BD Biosciences, CA, USA), 10 μL NADPH regenerating system solution B (BD Biosciences, CA, USA) and 2 μL compound (5 mM in DMSO) was prepared and heated for 5 min at 37° C. Twenty-five μL of liver microsomes (0.5 mg protein/mL, Corning B.V. Life Sciences, Amsterdam, Netherlands) was added to the mixture and 20 μL samples were withdrawn at 0, 0.25, 0.5 and 1, 2, 4, 6 and 24 hours. Eighty μL (4×20 μL) of cold acetonitrile (Sigma-Aldrich, MO, USA) was added to the samples on ice for 10 min. Afterwards, the mixtures were centrifuged at 13,000 rpm for 5 min at 4° C. Seventy-five μL of an acetonitrile/water (10/90) mixture was added to 25 μL supernatant and the obtained samples were analyzed by LC-MS/MS (Waters Acquity H-class UPLC system with ion trap mass spectrometer, Bruker Daltonics Esquire 3000 plus, and Agilent 1100 Series LC system) in triplicate.
(In general: Liver microsomes are vesicles of endoplasmic reticulum, rich in cytochrome P450 enzymes.)

A short description of series [7]: Chemical stability. To be noted: 37° C. and pH 7.4 for 24 hours (FIG. 11). Type of series: physicochemical. The method, then: A 10 μL aliquot of compound solution (10 mM in DMSO) was added to 990 μL DMSO (100 μM) and further diluted with […] to a stock solution of 500 nM. The mixture was incubated at 37° C. Aliquots of 100 μL were taken at various time points (0, 0.5, 1, 2, 3, 6 and 24 hrs) and analyzed with LC-MS/MS (Waters Acquity H-class UPLC system with ion trap mass spectrometer, Bruker Daltonics Esquire 3000 plus, and Agilent 1100 Series LC system). Samples were analyzed in triplicate and plotted against a standard curve; compound at 31-500 nM in buffer solution of pH 7.4 (10 mM Potassium Phosphate, BD Gentest).

On to `O=C(NC1CC1)C(Sc1nc2ccccc2c(=O)n1C1CCCC1)c1ccccc1` (centres unmarked) [Compound 1], for which, in series [1], the “plasma stability, mouse plasma” value is reported as “stable”. Moreover, in series [2], the half-maximal effective concentration (EC50) – broadly, the concentration needed to bring the measured effect to its halfway point – is around 1.6 µM; the maximum response (Emax) (as a rule, the greatest response seen or fitted, relative to the assay's reference) is 256 ± 126%; the “behaviour from the shape of the dose-response curves” value (“behaviour from the shape” below) was “ago-allosteric modulators”. In series [3], the “plasma stability, human plasma” value is “stable”. Further, the solubility at 2 h in series [4] is below 25 µM. In series [5], this molecule registered an EC50 of 8.92 µM and an Emax of 33.1 ± 4.21%. In addition, in series [6], the “t1/2 mouse” value is listed as 15 min and the half-life at 10 µM was 14 to 15 min. Also, the chemical stability result in series [7] is reported as “chemically stable”.

In the case of `Cc1sc2nc(SC(C)C(=O)Nc3sccc3C(N)=O)n(CC(C)C)c(=O)c2c1C` (centres unmarked) [Compound 6], in series [1], the “plasma stability, mouse plasma” value is reported as “stable”. Moreover, in series [2], the EC50 was around 13.9 µM, the maximal response (Emax) was found to be 112 ± 14% and the “behaviour from the shape” value was “weak or silent allosteric modulators”. Besides, the “plasma stability, human plasma” value in series [3] is recorded as “stable”. Also, the solubility at 2 h in series [4] is below 25 µM. In series [5], the 50% effective concentration (EC50) stood at 6.47 µM and the Emax came to 10.3 ± 3.01%. For the same molecule, in series [6], the “t1/2 mouse” value turned out to be 8 min and the half-life at 10 µM was 8 to 12 min. Further, the chemical stability result in series [7] is “chemically stable”.

In the case of `CC(Sc1nc2ccccc2c(=O)n1C1CCCC1)c1nc2ccccc2n1C(F)F` (centres unmarked) [Compound 7], in series [1], the “plasma stability, mouse plasma” value is listed as “stable”. Also, in series [2], the Emax turned out to be 139 ± 19% and the “behaviour from the shape” value is on record as “weak or silent allosteric modulators”. Besides, the “plasma stability, human plasma” value in series [3] was “stable”. In addition, in series [4], the solubility at 2 h was below 25 µM. In series [5], this molecule showed an EC50 of 10.4 µM and an Emax of 9.76 ± 2.46%. In series [6], the “t1/2 mouse” value worked out at 14 min and the half-life at 10 µM was 14 to 15 min. The chemical stability result in series [7] is listed as “chemically stable”.
